Species: Rattus norvegicus
Experiment: Open TG-GATES - Regimen: Single
Assay type: toxicity, organism-based, Sprague-Dawley
Parameters: regimen Single, gender Male, age 6 weeks
Conditions: in vivo, po, 600 mg/kg, route gavage, dose level Middle; for APTT / Bas / Eos / Fbg / Hb / Ht / Lym / MCH / MCHC / MCV / Mono / Neu / PT / Plat / RBC / Ret / WBC: tissue Blood; for KIDNEY_L / KIDNEY_R / KIDNEY_TOTAL: tissue Kidney; for LIVER: tissue Liver; for A/G / ALP / ALT / AST / BUN / CRE / Ca / Cl / DBIL / GLC / IP / K / LDH / Na / PL / RALB / TBIL / TC / TG / TP / gamma-GTP: tissue Plasma

`NNC(=O)c1ccncc1` [ISONIAZID] gave a TERMINAL_BW (3 h) of 221.5 g, an APTT (3 h) of 19.8 s and a Bas (3 h) of 0%. The Eos (3 h) was 1%, the Fbg (3 h) was 231 mg/dL and the Hb (3 h) was 13.7 g/dL. It also gave a Ht (3 h) of 37.8%, a Lym (3 h) of 72.6% and an MCH (3 h) of 22 pg. It also gave an MCHC (3 h) of 36.2%, an MCV (3 h) of 60.8 fL and a Mono (3 h) of 2.4%. The Neu (3 h) was 23.2%, the PT (3 h) was 12.2 s and the Plat (3 h) was 125.7 x10_4/uL. It also gave an RBC (3 h) of 622.4 x10_4/ul, a Ret (3 h) of 7.4% and a WBC (3 h) of 67.3 x10_2/uL. It also gave a KIDNEY_L (3 h) of 0.9 g, a KIDNEY_R (3 h) of 0.9 g and a KIDNEY_TOTAL (3 h) of 1.9 g. The LIVER (3 h) was 9.6 g, the A/G (3 h) was 1.7 and the ALP (3 h) was 950 IU/L. It also gave an ALT (3 h) of 39.6 IU/L, an AST (3 h) of 73.6 IU/L and a BUN (3 h) of 9 mg/dL. The CRE (3 h) was 0.4 mg/dL, the Ca (3 h) was 10.3 mg/dL and the Cl (3 h) was 104 meq/L. The DBIL (3 h) was 0.064 mg/dL, the GLC (3 h) was 197.6 mg/dL and the IP (3 h) was 10 mg/dL. It also gave a K (3 h) of 3.7 meq/L, an LDH (3 h) of 177.2 IU/L and a Na (3 h) of 141.4 meq/L. For the same compound, the PL (3 h) was 134.8 mg/dL, the RALB (3 h) was 3.6 g/dL and the TBIL (3 h) was 0.1 mg/dL. For the same compound, the TC (3 h) was 78.2 mg/dL, the TG (3 h) was 49.6 mg/dL and the TP (3 h) was 5.7 g/dL. It also gave a gamma-GTP (3 h) of 1 IU/L, a TERMINAL_BW (6 h) of 219.2 g and an APTT (6 h) of 18.4 s. The Bas (6 h) was 0%, the Eos (6 h) was 0.8% and the Fbg (6 h) was 223.4 mg/dL. It also gave a Hb (6 h) of 13.6 g/dL, a Ht (6 h) of 37.9% and a Lym (6 h) of 78.8%. The MCH (6 h) was 22 pg, the MCHC (6 h) was 36% and the MCV (6 h) was 61.3 fL. It also gave a Mono (6 h) of 1.8%, a Neu (6 h) of 17.6% and a PT (6 h) of 12.2 s. For the same compound, the Plat (6 h) was 133.3 x10_4/uL, the RBC (6 h) was 619 x10_4/ul and the Ret (6 h) was 7.6%. For the same compound, the WBC (6 h) was 75.7 x10_2/uL, the KIDNEY_L (6 h) was 1 g and the KIDNEY_R (6 h) was 1 g. For the same compound, the KIDNEY_TOTAL (6 h) was 1.9 g, the LIVER (6 h) was 9.6 g and the A/G (6 h) was 1.6. The ALP (6 h) was 838.6 IU/L, the ALT (6 h) was 27.6 IU/L and the AST (6 h) was 52.2 IU/L. For the same compound, the BUN (6 h) was 9.4 mg/dL, the CRE (6 h) was 0.4 mg/dL and the Ca (6 h) was 10.3 mg/dL. For the same compound, the Cl (6 h) was 104.6 meq/L, the DBIL (6 h) was 0.066 mg/dL and the GLC (6 h) was 210 mg/dL. It also gave an IP (6 h) of 9.3 mg/dL, a K (6 h) of 3.6 meq/L and an LDH (6 h) of 202.8 IU/L. The Na (6 h) was 142.8 meq/L, the PL (6 h) was 142.2 mg/dL and the RALB (6 h) was 3.5 g/dL. For the same compound, the TBIL (6 h) was 0.1 mg/dL, the TC (6 h) was 71 mg/dL and the TG (6 h) was 90.4 mg/dL. It also gave a TP (6 h) of 5.8 g/dL, a gamma-GTP (6 h) of 1 IU/L and a TERMINAL_BW (9 h) of 219.9 g. It also gave an APTT (9 h) of 17.5 s, a Bas (9 h) of 0% and an Eos (9 h) of 0.8%. It also gave a Fbg (9 h) of 222.8 mg/dL, a Hb (9 h) of 13.5 g/dL and a Ht (9 h) of 37.4%. It also gave a Lym (9 h) of 70.6%, an MCH (9 h) of 21.9 pg and an MCHC (9 h) of 36.1%. It also gave an MCV (9 h) of 60.6 fL, a Mono (9 h) of 1.6% and a Neu (9 h) of 26%. It also gave a PT (9 h) of 12.3 s, a Plat (9 h) of 116 x10_4/uL and an RBC (9 h) of 616.6 x10_4/ul. It also gave a Ret (9 h) of 7.1%, a WBC (9 h) of 71.5 x10_2/uL and a KIDNEY_L (9 h) of 1 g. It also gave a KIDNEY_R (9 h) of 1 g, a KIDNEY_TOTAL (9 h) of 2 g and an LIVER (9 h) of 8.8 g. It also gave an A/G (9 h) of 1.5, an ALP (9 h) of 752.2 IU/L and an ALT (9 h) of 23.2 IU/L. For the same compound, the AST (9 h) was 44.6 IU/L, the BUN (9 h) was 7.8 mg/dL and the CRE (9 h) was 0.4 mg/dL. For the same compound, the Ca (9 h) was 10.3 mg/dL, the Cl (9 h) was 105 meq/L and the DBIL (9 h) was 0.066 mg/dL. The GLC (9 h) was 200.6 mg/dL, the IP (9 h) was 9 mg/dL and the K (9 h) was 3.8 meq/L. For the same compound, the LDH (9 h) was 203.6 IU/L, the Na (9 h) was 142.6 meq/L and the PL (9 h) was 152.8 mg/dL. For the same compound, the RALB (9 h) was 3.4 g/dL, the TBIL (9 h) was 0.1 mg/dL and the TC (9 h) was 78.2 mg/dL. It also gave a TG (9 h) of 74.6 mg/dL, a TP (9 h) of 5.7 g/dL and a gamma-GTP (9 h) of 1 IU/L. The TERMINAL_BW (24 h) was 215.6 g, the APTT (24 h) was 19.7 s and the Bas (24 h) was 0.4%. It also gave an Eos (24 h) of 0.8%, a Fbg (24 h) of 218.6 mg/dL and a Hb (24 h) of 14.5 g/dL. For the same compound, the Ht (24 h) was 39.6%, the Lym (24 h) was 86.4% and the MCH (24 h) was 22.4 pg. The MCHC (24 h) was 36.7%, the MCV (24 h) was 61 fL and the Mono (24 h) was 2.4%. It also gave a Neu (24 h) of 8.8%, a PT (24 h) of 12.9 s and a Plat (24 h) of 139.5 x10_4/uL. It also gave an RBC (24 h) of 649.2 x10_4/ul, a Ret (24 h) of 3.7% and a WBC (24 h) of 85.9 x10_2/uL. The KIDNEY_L (24 h) was 1 g, the KIDNEY_R (24 h) was 1 g and the KIDNEY_TOTAL (24 h) was 2.1 g. For the same compound, the LIVER (24 h) was 9.8 g, the A/G (24 h) was 1.7 and the ALP (24 h) was 817.6 IU/L. It also gave an ALT (24 h) of 15.2 IU/L, an AST (24 h) of 32.2 IU/L and a BUN (24 h) of 17.8 mg/dL. The CRE (24 h) was 0.4 mg/dL, the Ca (24 h) was 10.6 mg/dL and the Cl (24 h) was 104.4 meq/L. It also gave a DBIL (24 h) of 0.06 mg/dL, a GLC (24 h) of 189.2 mg/dL and an IP (24 h) of 8.9 mg/dL. For the same compound, the K (24 h) was 3.9 meq/L, the LDH (24 h) was 202.4 IU/L and the Na (24 h) was 143.4 meq/L. The PL (24 h) was 123.2 mg/dL, the RALB (24 h) was 3.6 g/dL and the TBIL (24 h) was 0.1 mg/dL. The TC (24 h) was 58.6 mg/dL, the TG (24 h) was 69.6 mg/dL and the TP (24 h) was 5.7 g/dL. The gamma-GTP (24 h) was 1 IU/L.
